Measurements taken from ChEMBL document CHEMBL6096636 (Bioorg Med Chem, 2024).
pIC50: −log10 of the molar value. The source made the active and inactive calls. No cut-off for these calls is given here.

Legend:
[1] = Resistance index, ratio of IC50 for sulfadoxine-pyrimethamine and mefloquine resistant Plasmodium falciparum clinical isolate CP286 to IC50 for erythrocytic stage of Plasmodium falciparum 3D7; type: functional
Plasmodium falciparum [2] = assay: microbe, parasite or virus in culture; details: 72 h
Description: Antimalarial activity against chloroquine resistant Plasmodium falciparum clinical isolate GB4 assessed as inhibition of growth incubated for 72 hrs by SYBR green I based assay

[3] = Resistance index, ratio of IC50 for quinine and chloroquine resistant Plasmodium falciparum clinical isolate C2A to IC50 for erythrocytic stage of Plasmodium falciparum 3D7; type: functional
Plasmodium falciparum [4] = assay: microbe, parasite or virus in culture; details: 3D7, 72 h
Description: Antimalarial activity against erythrocytic stage of Plasmodium falciparum 3D7 assessed as inhibition of growth incubated for 72 hrs by SYBR green I based assay

[5] = Resistance index, ratio of IC50 for chloroquine resistant Plasmodium falciparum clinical isolate GB4 to IC50 for erythrocytic stage of Plasmodium falciparum 3D7; type: functional
Plasmodium falciparum [6] = assay: Antimalarial activity against sulfadoxine-pyrimethamine and mefloquine resistant Plasmodium falciparum clinical isolate CP286 assessed as inhibition of growth incubated for 72 hrs by SYBR green I based assay; type: functional, organism-based
Plasmodium falciparum [7] = assay: microbe, parasite or virus in culture; details: 72 h; remark: listed apart in the source
Description: Antimalarial activity against quinine and chloroquine resistant Plasmodium falciparum clinical isolate C2A assessed as inhibition of growth incubated for 72 hrs by SYBR green I based assay

Plasmodium falciparum [8] = assay: microbe, parasite or virus in culture; details: Dd2, 72 h
Description: Antimalarial activity against erythrocytic stage of chloroquine-resistant Plasmodium falciparum Dd2 assessed as inhibition of growth incubated for 72 hrs by SYBR green I based assay

[9] = Cytotoxicity against HEK293T cells assessed as inhibition of cell growth incubated for 72 hrs by CCK8 assay; type: toxicity, cell-based, HEK-293T; details: human
Histone deacetylase 2 = Histone deacetylase 2 (Homo sapiens, UniProt Q92769); assay: Inhibition of recombinant human HDAC2 using Ac-peptide as substrate preincubated for 15 mins followed by substrate addition and measured after 60 mins
Sequence of Histone deacetylase 2 (Q92769 whole entry): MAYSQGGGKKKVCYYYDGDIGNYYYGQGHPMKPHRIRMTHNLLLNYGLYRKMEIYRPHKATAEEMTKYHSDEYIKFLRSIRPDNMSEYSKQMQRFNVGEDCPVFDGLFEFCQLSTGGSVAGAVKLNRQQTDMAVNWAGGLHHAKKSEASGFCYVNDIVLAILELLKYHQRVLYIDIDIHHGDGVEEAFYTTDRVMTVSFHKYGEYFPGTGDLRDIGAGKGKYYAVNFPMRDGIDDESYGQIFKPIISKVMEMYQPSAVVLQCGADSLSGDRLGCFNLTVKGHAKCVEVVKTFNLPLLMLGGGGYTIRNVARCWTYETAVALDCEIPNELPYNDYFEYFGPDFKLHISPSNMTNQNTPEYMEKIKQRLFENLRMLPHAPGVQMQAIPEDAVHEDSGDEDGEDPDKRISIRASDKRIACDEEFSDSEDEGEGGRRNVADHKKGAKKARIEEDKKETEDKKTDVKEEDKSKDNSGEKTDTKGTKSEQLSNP

[10] = Cytotoxicity against human HepG2 cells assessed as inhibition of cell growth incubated for 72 hrs by CCK8 assay; type: toxicity, cell-based
[11] = Metabolic stability in mouse liver microsomes assessed as half-life measured upto 45 mins in presence of NADPH by LC-MS/MS analysis; type: ADME, Microsome
[12] = Selectivity index, ratio of IC50 for HEK293T cells to IC50 for erythrocytic stage of Plasmodium falciparum 3D7; type: toxicity, cell-based; details: human, read-out: Ratio IC50
Histone deacetylase 1 = Histone deacetylase 1 (Homo sapiens, UniProt Q13547); assay: Inhibition of recombinant human HDAC1 using Ac-peptide as substrate preincubated for 15 mins followed by substrate addition and measured after 60 mins
Sequence of Histone deacetylase 1 (Q13547 whole entry): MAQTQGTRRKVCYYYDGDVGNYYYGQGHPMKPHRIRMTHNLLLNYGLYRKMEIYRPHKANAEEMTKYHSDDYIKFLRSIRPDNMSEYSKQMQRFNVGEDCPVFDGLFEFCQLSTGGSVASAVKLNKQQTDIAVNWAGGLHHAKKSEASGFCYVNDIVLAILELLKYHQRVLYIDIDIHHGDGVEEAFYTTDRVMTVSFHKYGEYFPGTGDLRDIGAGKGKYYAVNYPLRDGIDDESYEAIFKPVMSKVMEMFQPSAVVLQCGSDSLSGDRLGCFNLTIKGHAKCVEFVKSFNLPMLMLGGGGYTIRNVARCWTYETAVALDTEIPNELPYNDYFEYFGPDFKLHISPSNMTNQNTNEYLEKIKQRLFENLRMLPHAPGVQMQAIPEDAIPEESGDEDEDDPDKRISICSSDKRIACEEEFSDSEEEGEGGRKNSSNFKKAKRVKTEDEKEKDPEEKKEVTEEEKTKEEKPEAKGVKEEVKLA

Plasmodium yoelii [13] = assay: Antimalarial activity against erythrocytic stage of Plasmodium yoelli infected in female mouse model assessed as reduction in parasitemia at 30 mg/kg, ip pre-infected with parasite followed by twice daily compound administration from day 3 to 6 by microscopic analysis; type: functional, organism-based; details: time 4.0 day
Histone deacetylase 3 = Histone deacetylase 3 (Homo sapiens, UniProt O15379); assay: Inhibition of recombinant human HDAC3 using Ac-peptide as substrate preincubated for 15 mins followed by substrate addition and measured after 60 mins
Sequence of Histone deacetylase 3 (O15379 whole entry): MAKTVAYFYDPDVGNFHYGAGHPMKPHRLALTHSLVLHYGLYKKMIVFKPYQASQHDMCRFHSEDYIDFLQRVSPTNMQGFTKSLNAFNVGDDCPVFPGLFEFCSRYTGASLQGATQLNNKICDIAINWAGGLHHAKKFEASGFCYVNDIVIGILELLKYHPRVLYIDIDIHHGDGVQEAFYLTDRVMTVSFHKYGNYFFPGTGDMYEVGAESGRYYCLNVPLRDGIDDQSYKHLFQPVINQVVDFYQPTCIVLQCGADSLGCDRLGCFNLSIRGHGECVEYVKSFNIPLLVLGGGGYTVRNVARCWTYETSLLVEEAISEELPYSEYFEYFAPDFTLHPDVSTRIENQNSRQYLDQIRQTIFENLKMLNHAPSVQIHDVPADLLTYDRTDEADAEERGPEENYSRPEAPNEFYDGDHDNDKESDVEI

[14] = Toxicity in female mouse model infected with erythrocytic stage of Plasmodium yoelli assessed as animal death at 30 mg/kg, ip pre-infected with parasite followed by twice daily compound administration from day 3 to 6; type: organism-based; details: in vivo, 96 h, time 4 day
Plasmodium falciparum [15] = assay: Inhibition of asynchronous ring stage Plasmodium falciparum 3D7 HDAC assessed as increase in histone H3 acetylation level at 20 times of IC50 concentration incubated for 2 hrs by Western blot analysis
[16] = biological target: T1, NAD-dependent protein deacetylase sirtuin-2 (Homo sapiens, UniProt Q8IXJ6); assay: Inhibition of recombinant human SIRT2 using Ac-peptide as substrate preincubated for 15 mins followed by substrate addition for 240 mins and measured after 120 mins of trypsin addition
T1 sequence (Q8IXJ6 whole entry): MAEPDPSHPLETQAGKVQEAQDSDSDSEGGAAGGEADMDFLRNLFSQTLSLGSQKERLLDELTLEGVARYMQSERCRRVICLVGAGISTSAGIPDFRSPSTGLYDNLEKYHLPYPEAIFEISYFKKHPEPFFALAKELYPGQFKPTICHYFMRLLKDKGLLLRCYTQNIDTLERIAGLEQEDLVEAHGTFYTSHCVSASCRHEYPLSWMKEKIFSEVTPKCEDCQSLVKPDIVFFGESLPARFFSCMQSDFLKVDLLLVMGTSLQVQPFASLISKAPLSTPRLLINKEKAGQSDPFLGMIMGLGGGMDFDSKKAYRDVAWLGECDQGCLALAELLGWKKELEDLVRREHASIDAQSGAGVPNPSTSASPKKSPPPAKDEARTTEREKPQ

[17] = Metabolic stability in mouse liver microsomes assessed as clearance measured upto 45 mins in presence of NADPH by LC-MS/MS analysis; type: ADME, Microsome; details: read-out: CLH
[18] = biological target: T2, Protein deacetylase HDAC6 (Homo sapiens, UniProt Q9UBN7); assay: Inhibition of recombinant human HDAC6 using Ac-peptide as substrate preincubated for 15 mins followed by substrate addition and measured after 60 mins
T2 sequence (Q9UBN7 whole entry): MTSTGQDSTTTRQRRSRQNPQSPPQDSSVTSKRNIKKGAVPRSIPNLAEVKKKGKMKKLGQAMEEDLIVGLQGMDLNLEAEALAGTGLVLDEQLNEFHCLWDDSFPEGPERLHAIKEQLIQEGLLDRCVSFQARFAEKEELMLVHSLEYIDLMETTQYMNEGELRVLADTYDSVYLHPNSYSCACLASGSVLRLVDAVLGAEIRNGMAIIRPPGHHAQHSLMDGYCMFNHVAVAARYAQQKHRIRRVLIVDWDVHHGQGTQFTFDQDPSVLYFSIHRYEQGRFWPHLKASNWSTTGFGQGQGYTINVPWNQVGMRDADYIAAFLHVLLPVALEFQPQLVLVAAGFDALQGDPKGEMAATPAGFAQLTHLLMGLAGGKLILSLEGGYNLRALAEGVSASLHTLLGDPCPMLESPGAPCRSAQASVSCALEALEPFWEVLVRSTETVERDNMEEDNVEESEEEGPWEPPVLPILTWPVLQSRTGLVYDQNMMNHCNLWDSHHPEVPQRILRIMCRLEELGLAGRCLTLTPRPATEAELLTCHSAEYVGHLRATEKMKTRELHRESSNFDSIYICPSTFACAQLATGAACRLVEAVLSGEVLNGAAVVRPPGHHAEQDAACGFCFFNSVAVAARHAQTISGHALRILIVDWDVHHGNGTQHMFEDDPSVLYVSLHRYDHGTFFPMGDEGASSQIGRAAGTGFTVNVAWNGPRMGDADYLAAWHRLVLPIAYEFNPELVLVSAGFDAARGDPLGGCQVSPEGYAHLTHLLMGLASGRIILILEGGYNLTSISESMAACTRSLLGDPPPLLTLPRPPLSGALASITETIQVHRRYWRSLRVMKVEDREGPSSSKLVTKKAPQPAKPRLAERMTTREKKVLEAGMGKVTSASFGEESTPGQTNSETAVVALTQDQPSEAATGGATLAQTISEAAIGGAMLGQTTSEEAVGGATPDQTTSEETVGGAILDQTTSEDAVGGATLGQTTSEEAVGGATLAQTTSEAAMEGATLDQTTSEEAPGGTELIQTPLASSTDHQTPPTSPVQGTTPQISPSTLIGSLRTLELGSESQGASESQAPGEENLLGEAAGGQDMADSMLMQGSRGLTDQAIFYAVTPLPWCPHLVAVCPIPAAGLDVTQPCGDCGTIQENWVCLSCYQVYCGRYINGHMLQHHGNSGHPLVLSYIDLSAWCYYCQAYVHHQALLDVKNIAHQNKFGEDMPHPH

Histone deacetylase 8 = biological target: T3, Histone deacetylase 8 (Homo sapiens, UniProt Q9BY41); assay: Inhibition of recombinant human HDAC8 using Ac-peptide as substrate preincubated for 15 mins followed by substrate addition for 240 mins and measured after 120 mins of trypsin addition
T3 sequence (Q9BY41 whole entry): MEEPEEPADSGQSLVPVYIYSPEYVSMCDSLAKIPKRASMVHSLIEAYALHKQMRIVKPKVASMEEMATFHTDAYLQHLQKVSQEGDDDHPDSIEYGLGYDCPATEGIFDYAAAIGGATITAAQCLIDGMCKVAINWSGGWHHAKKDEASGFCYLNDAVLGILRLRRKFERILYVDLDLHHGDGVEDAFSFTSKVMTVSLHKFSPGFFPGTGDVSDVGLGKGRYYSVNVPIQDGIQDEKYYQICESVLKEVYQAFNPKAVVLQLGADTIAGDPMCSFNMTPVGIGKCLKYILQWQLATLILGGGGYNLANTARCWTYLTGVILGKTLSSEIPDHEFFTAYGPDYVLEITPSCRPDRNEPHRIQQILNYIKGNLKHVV

[19] = Toxicity in female mouse model at 150 mg/kg, ip administered as single dose; type: organism-based; details: in vivo
[20] = Toxicity in female mouse model infected with erythrocytic stage of Plasmodium yoelli assessed as animal death at 30 mg/kg, ip pre-infected with parasite followed by […] compound administration from day 3 to 6; type: organism-based; details: in vivo, 96 h, time 4 day
Plasmodium yoelii [21] = assay: Antimalarial activity against erythrocytic stage of Plasmodium yoelli infected in female mouse model assessed as reduction in parasitemia at 60 mg/kg, ip pre-infected with parasite followed by once daily compound administration from day 3 to 6 by microscopic analysis; type: functional, organism-based; details: time 4.0 day
[22] = Tmax in female Balb/c mouse at 5 mg/kg, ip measured after 24 hrs by LC-MS/MS analysis; type: ADME, organism-based; details: in vivo

SMILES	pIC50 (Plasmodium falciparum [2])	pIC50 (Plasmodium falciparum [4])	pIC50 (Plasmodium falciparum [6])	pIC50 (Plasmodium falciparum [7])	pIC50 (Plasmodium falciparum [8])	half-life [11]	Activity (Plasmodium yoelii [13])	inhibition (Plasmodium falciparum [15])	pIC50 [16]	further results
C[C@H]1[C@@H](O)O[C@@H]2O[C@@]3(C)CC[C@H]4[C@H](C)CC[C@@H]1[C@@]24OO3 [ARTENIMOL]	8.49	8.57	8.25	8.43	8.57					Ratio IC50 [1]: 2.1; Ratio IC50 [3]: 1.4; Ratio IC50 [5]: 1.2
COc1ccc2c(CN[C@H]3CC[C@@H](Nc4ncc(C(=O)NO)cn4)CC3)cn(C)c2c1.Cl	7.57	8.57	7.41	7.64	7.89	48 min	Active; Only Slight Recurrence Of Parasitemia Was Observed Upon Cessation Of Treatment	Active	< 5.00	IC50 at 72 h [9]: > 10000 nM; pIC50 (Histone deacetylase 2): 7.85; IC50 at 72 h [10]: 12800 nM; selectivity ratio [12]: > 867; pIC50 (Histone deacetylase 1): 8.04; pIC50 (Histone deacetylase 3): 7.68; Activity [14]: Toxic; CLint scaled [17]: 114 mL/min/kg; pIC50 [18]: 7.05; pIC50 (Histone deacetylase 8): 7.52
Cn1cc(CNCC2CCN(c3ncc(C(=O)NO)cn3)CC2)c2ccccc21 [QUISINOSTAT]	8.77	8.28				13.3 min	Not active; Mild Recurrence Of Parasitemia Post-Treatment Cessation Observed	Active	< 5.00	Activity [19]: Toxic; Activity [20]: Toxic; Activity (Plasmodium yoelii [21]): Active; Significant Recurrence Of Parasitemia Observed; Tmax [22]: 4.98 min
